Laboratory results taken from US11414374B2, “Crystalline forms of vilanterol trifenatate and processes for their preparation” (Hovione Scientia Limited, priority 2017, dated 2022).
Values after ≈ are worked out from the molar mass of the structure shown. “Also recorded” adds a separate entry of the source.

Tests used:
Format in all cases: physicochemical
[1] = Dynamic vapor sorption (DVS) analysis / hygroscopicity (EP 7.0 classification); settings: for hygroscopicity classification according to the European Pharmacopoeia (EP, version 7.0) / mass increase by dynamic vapor sorption analysis (hygroscopicity): 80% RH and 25° C.; for mass increase by dynamic vapor sorption analysis (hygroscopicity): first sorption cycle, relative to 40% RH; for Change In Mass (%) Desorption / Change In Mass (%) Hysteresis / Change In Mass (%) Sorption: DVS, 25° C.; for stability / XRPD pattern after DVS analysis: compared with untreated sample
Procedure: The hygroscopicity value is directly obtained from the sorption row at 80% RH, cycle 1.
Hygroscopicity of a sample of each of new form II and comparative form I was determined using the protocol provided below in conditions of 80% RH and 25° C.
The sample was subjected to DVS measuring using SMS-DVS intrinsic. The kinetic moisture sorption measurement was performed at 25° C. and in a RH % range described in the following: • From 40% RH to 90% RH • Form 90% RH to 0% RH • From 0% RH to 90% RH • From 90% RH to 0% RH
The sample was analyzed by XRPD after the analysis.
The hygroscopicity was calculated using the following equation: % Weight Change=[(W2−W1)/W1]*100 W1: weight of sample at the start of the experiment (25° C. and 40% RH) W2: weight of sample at 25° C. and 80% RH in the first absorption cycle

[2] = Storage stability of exposed powder at 25° C. and 60% RH for seven days, compared by XRPD; settings: for modifications in XRPD pattern after storage (structural stability): 60% RH and 25° C. for 7 days, exposed powder
Procedure: Approximately 30 mg of exposed powder of comparative form 1 and new forms II and III, respectively, were stored at 25′C and 60% RH for seven days. Each powder was then analyzed by XRPD and its diffraction pattern was compared with that of untreated sample.

[3] = Visual solubility in differing solvents (European Pharmacopeia 6.0 section 5.11); settings: for visual solubility in water: water at 75° C.
Procedure: Visual solubility of certain forms (compounds) in differing solvents was assessed according to the procedure described in the European Pharmacopeia 6.0 section 5.11. p. The compound was shaken vigorously for 1 min and placed in a constant temperature device for 15 min at 25.0±0.5° C. If the compound was not completely dissolved, the shaking was repeated for 1 min and the tube placed in a constant temperature device for 15 min. 50 mg of compound was weighed in a stoppered tube, 0.05 mL of the solvent added and the Dissolving Procedure (see above) followed. If the compound was completely dissolved, it is very soluble. If the compound was not completely dissolved, a further 0.45 mL of the solvent was added and the Dissolving Procedure (see above) followed. […] If the compound was still not completely dissolved, still further 1.0 mL of the solvent was added and the Dissolving Procedure (see above) followed. If the compound was completely dissolved, it is soluble. If the compound was still not completely dissolved, another 3.5 mL of the solvent was added and the Dissolving Procedure (see above) followed. […] If the compound was still not completely dissolved, the compound is slightly soluble or very slightly soluble. In this case, and the suspension was heated up to the boiling point (max 80° C.) under stirring to verify the solubility at high temperature. The hot solution was afterwards cooled to room temperature to observe whether the compound precipitates. If the compound at room temperature was completely dissolved, it is soluble at high temperature. [table]

[4] = Micronization in fluid energy jet mill: particle size distribution and XRPD of product; settings: for XRPD of micronized product versus starting material: after fluid energy jet milling; for particle size distribution Dv90 after micronization: fluid energy jet mill, N2
From the text: Vilanterol trifenatate form II is fed to a fluid energy jet mill at 10-100 g/h, operated with N2 at a pressure of 1 to 8 bar for the venturi and a pressure of 1 to 8 bar for the ring.

[5] = DSC - differential scanning calorimetry; settings: listed as Form 6
Procedure: The analysis was carried out using a DSC Q200 TA instruments equipped with a refrigerator cooling system (RCS40) and autosampler. The sample was weighed in an aluminum hermetic pan with pinhole. The analysis was performed heating the sample from 25° C. to 350° C. at 10° C./min.

[6] = TGA / TGA-EGA thermogravimetric analysis with evolved gas analysis; settings: listed as Form 6
Procedure: The analysis was carried out using the Mettler Toledo TGA/DSC1. The sample was weighed in an aluminum pan hermetically sealed with an aluminum pierced cover. The analysis was performed heating the sample from 25° C. to 320° C. at 10° C./min. TGA-FTIR coupled with Thermo Nicoled is 10 spectometer. The analysis was carried out using the mettler toledo TGA/DSC1. The sample was weighed in an aluminum pan hermetically sealed with an aluminum pierced cover. The analysis was performed heating the sample from 25° C. to 320° C. at 10° C./min. The evolved gas is compared with ft-ir spectra database for identification.

[7] = Stability test (exposed sample 16 h), form by XRPD; settings: resulting form, listed as Form 6
[8] = Stability test (sealed vial 18 h), form by XRPD; settings: resulting form, listed as Form 6
[9] = Stability test (60° C. 75% RH-3 d), form by XRPD; settings: resulting form, listed as Form 6

OCc1cc([C@@H](O)CNCCCCCCOCCOCc2c(Cl)cccc2Cl)ccc1O [form II, vilanterol trifenatate]
hygroscopicity classification according to the European Pharmacopoeia (EP, version 7.0) [1]: non-hygroscopic; also recorded: not hygroscopic
mass increase by dynamic vapor sorption analysis (hygroscopicity) [1]: 0.04%
mass increase by dynamic vapor sorption analysis (hygroscopicity) ([1]; listed as polymorph II): 0.04%
Change In Mass (%) Desorption ([1]; Cycle 1, target RH 0.0%): −0.03351%
Change In Mass (%) Desorption ([1]; Cycle 1, target RH 10.0%): −0.01706%
Change In Mass (%) Desorption ([1]; Cycle 1, target RH 20.0%): −0.00684%
Change In Mass (%) Desorption ([1]; Cycle 1, target RH 30.0%): 0.00031%
Change In Mass (%) Desorption ([1]; Cycle 1, target RH 40.0%): 0.00692%
Change In Mass (%) Hysteresis ([1]; Cycle 1, target RH 40.0%): 0.00707%
Change In Mass (%) Sorption ([1]; Cycle 1, target RH 40.0%): −0.00015%
Change In Mass (%) Desorption ([1]; Cycle 1, target RH 50.0%): 0.01476%
Change In Mass (%) Hysteresis ([1]; Cycle 1, target RH 50.0%): 0.00868%
Change In Mass (%) Sorption ([1]; Cycle 1, target RH 50.0%): 0.00607%
Change In Mass (%) Desorption ([1]; Cycle 1, target RH 60.0%): 0.02244%
Change In Mass (%) Hysteresis ([1]; Cycle 1, target RH 60.0%): 0.00892%
Change In Mass (%) Sorption ([1]; Cycle 1, target RH 60.0%): 0.01353%
Change In Mass (%) Desorption ([1]; Cycle 1, target RH 70.0%): 0.03051%
Change In Mass (%) Hysteresis ([1]; Cycle 1, target RH 70.0%): 0.00892%
Change In Mass (%) Sorption ([1]; Cycle 1, target RH 70.0%): 0.0216%
Change In Mass (%) Desorption ([1]; Cycle 1, target RH 80.0%): 0.04181%
Change In Mass (%) Hysteresis ([1]; Cycle 1, target RH 80.0%): 0.0043%
Change In Mass (%) Sorption ([1]; Cycle 1, target RH 80.0%): 0.0375%
Change In Mass (%) Desorption ([1]; Cycle 1, target RH 90.0%): 0.05802%
Change In Mass (%) Sorption ([1]; Cycle 1, target RH 90.0%): 0.05802%
Change In Mass (%) Sorption ([1]; Cycle 2, target RH 0.0%): −0.03351%
Change In Mass (%) Sorption ([1]; Cycle 2, target RH 10.0%): −0.0229%
Change In Mass (%) Sorption ([1]; Cycle 2, target RH 20.0%): −0.01545%
Change In Mass (%) Sorption ([1]; Cycle 2, target RH 30.0%): −0.00907%
Change In Mass (%) Sorption ([1]; Cycle 2, target RH 40.0%): −0.00261%
Change In Mass (%) Sorption ([1]; Cycle 2, target RH 50.0%): 0.00277%
Change In Mass (%) Sorption ([1]; Cycle 2, target RH 60.0%): 0.01068%
Change In Mass (%) Sorption ([1]; Cycle 2, target RH 70.0%): 0.01821%
Change In Mass (%) Sorption ([1]; Cycle 2, target RH 80.0%): 0.03189%
Change In Mass (%) Sorption ([1]; Cycle 2, target RH 90.0%): 0.04819%
stability / XRPD pattern after DVS analysis [1]: showed stability after DVS analysis
modifications in XRPD pattern after storage (structural stability) [2]: No significant modifications in XRPD pattern
solubility at 15 min ([3]; ethanol, 50 °C, organic solvent or mixture, thermodynamic from solid, ethanol at 50° C., read-out: visual solubility in ethanol): 10 to 33 mg/mL (≈ 20.6 to 67.8 mM)
visual solubility in water [3]: insoluble
XRPD of micronized product versus starting material [4]: identical to the one of the starting material
particle size distribution Dv90 after micronization [4]: below 10 μm

OCc1cc([C@@H](O)CNCCCCCCOCCOCc2c(Cl)cccc2Cl)ccc1O [form III, vilanterol trifenatate]
hygroscopicity classification according to the European Pharmacopoeia (EP, version 7.0) [1]: slightly hygroscopic
mass increase by dynamic vapor sorption analysis (hygroscopicity) [1]: 1.1%
Change In Mass (%) Desorption ([1]; Cycle 1, target RH 0.0%): −0.017%
Change In Mass (%) Desorption ([1]; Cycle 1, target RH 10.0%): 0.002%
Change In Mass (%) Desorption ([1]; Cycle 1, target RH 20.0%): 0.015%
Change In Mass (%) Desorption ([1]; Cycle 1, target RH 30.0%): 0.024%
Change In Mass (%) Desorption ([1]; Cycle 1, target RH 40.0%): 0.035%
Change In Mass (%) Hysteresis ([1]; Cycle 1, target RH 40.0%): 0.035%
Change In Mass (%) Sorption ([1]; Cycle 1, target RH 40.0%): 0.000%
Change In Mass (%) Desorption ([1]; Cycle 1, target RH 50.0%): 0.280%
Change In Mass (%) Hysteresis ([1]; Cycle 1, target RH 50.0%): 0.271%
Change In Mass (%) Sorption ([1]; Cycle 1, target RH 50.0%): 0.008%
Change In Mass (%) Desorption ([1]; Cycle 1, target RH 60.0%): 0.421%
Change In Mass (%) Hysteresis ([1]; Cycle 1, target RH 60.0%): 0.399%
Change In Mass (%) Sorption ([1]; Cycle 1, target RH 60.0%): 0.022%
Change In Mass (%) Desorption ([1]; Cycle 1, target RH 70.0%): 0.567%
Change In Mass (%) Hysteresis ([1]; Cycle 1, target RH 70.0%): 0.530%
Change In Mass (%) Sorption ([1]; Cycle 1, target RH 70.0%): 0.037%
Change In Mass (%) Desorption ([1]; Cycle 1, target RH 80.0%): 1.144%
Change In Mass (%) Hysteresis ([1]; Cycle 1, target RH 80.0%): 0.061%
Change In Mass (%) Sorption ([1]; Cycle 1, target RH 80.0%): 1.083%
Change In Mass (%) Desorption ([1]; Cycle 1, target RH 90.0%): 1.857%
Change In Mass (%) Sorption ([1]; Cycle 1, target RH 90.0%): 1.857%
Change In Mass (%) Sorption ([1]; Cycle 2, target RH 0.0%): −0.017%
Change In Mass (%) Sorption ([1]; Cycle 2, target RH 10.0%): −0.003%
Change In Mass (%) Sorption ([1]; Cycle 2, target RH 20.0%): 0.008%
Change In Mass (%) Sorption ([1]; Cycle 2, target RH 30.0%): 0.016%
Change In Mass (%) Sorption ([1]; Cycle 2, target RH 40.0%): 0.025%
Change In Mass (%) Sorption ([1]; Cycle 2, target RH 50.0%): 0.033%
Change In Mass (%) Sorption ([1]; Cycle 2, target RH 60.0%): 0.041%
Change In Mass (%) Sorption ([1]; Cycle 2, target RH 70.0%): 0.056%
Change In Mass (%) Sorption ([1]; Cycle 2, target RH 80.0%): 1.111%
Change In Mass (%) Sorption ([1]; Cycle 2, target RH 90.0%): 1.952%
stability / XRPD pattern after DVS analysis [1]: no significant modifications
modifications in XRPD pattern after storage (structural stability) [2]: No significant modifications in XRPD pattern
visual solubility in tetrahydrofuran (THF) ([3]; THF at 25° C.): sparingly soluble (another 3.5 mL of the solvent was added and the Dissolving Procedure (see above) followed. If the compound was completely dissolved, it is sparingly soluble.)
visual solubility in water [3]: insoluble
XRPD of micronized product versus starting material [4]: identical to the one of the starting material
particle size distribution Dv90 after micronization [4]: below 10 μm

OCc1cc([C@@H](O)CNCCCCCCOCCOCc2c(Cl)cccc2Cl)ccc1O [form VI, vilanterol trifenatate]
Hygroscopically (DVS) ([1]; DVS hygroscopicity class, listed as Form 6): Slightly hygroscopic (Increase in mass is less than 2% and equal to or greater than 0.2%)
XRPD after DVS ([1]; resulting form after DVS, listed as Form 6): Form 6
Stability test (25° C. 60% RH-7 d) ([2]; 25° C. 60% RH, 7 d, resulting form, listed as Form 6): Form 1 (almost
DSC (onset) endo. solvent loss + melting ([5]; endothermic event: solvent loss + melting (Form 6: + Form 2 melting; Form 14: + Form 3 melting)): endo. 80 °C solvent loss +
DSC (onset) endo. solvent loss ([5]; endothermic event: solvent loss): endo. 65 °C solvent loss
EGA ([6]; evolved solvent identified): 2-Propanol
TGA overall weight loss ([6]; overall loss of the named solvent(s)): One weight loss of 73% w/w
Stability test (exposed sample 16 h) [7]: Form 12
Stability test (sealed vial 18 h) [8]: Form 6
Stability test (60° C. 75% RH-3 d) [9]: Amorphous
